In US20180235931A1, “USE OF NEUROKININ-1 ANTAGONISTS AS ANTITUSSIVES” (Menlo Therapeutics Inc., priority 2017, published 2018):

Assays:
[1] = cited from earlier work
[2] = Solubility test of serlopitant in Franz cell receptor solution; format: physicochemical
[3] = In vitro skin permeation, Franz diffusion cell; format: in vitro ADME; details: topical formulations B and C on human skin, 37 C, LC-MS/MS
Method: In vitro skin permeation of serlopitant in topical formulations A-D was evaluated using a Franz diffusion cell. FIG. 1 illustrates a Franz diffusion cell. A Franz diffusion cell having a circular permeation area of 4.15 cm^2 and a receptor chamber volume of 19 mL was set up with a thermo-regulated outer water jacket to maintain the temperature at 37° C. The receptor chamber was filled with 19 mL 1×PBS (pH 7.5) containing 10% ethanol and 1% Tween® 80.
Human skin was pre-treated to remove all subcutaneous fat and was cleaned with 70% ethanol before use. The skin was visually inspected to ensure that it was free of any surface irregularity or small holes and was equally divided into four pieces. The skin was then mounted onto the receptor chamber with the stratum corneum side facing up. About 100 mg of topical formulation A, B, C or D was applied to the skin (actual weight: A, 103.8 mg; B, 101.3 mg; C, 103.2 mg; and D, 103.8 mg), which was then covered with parafilm to avoid evaporation. […]
All samples were processed by solid-phase extraction (SPE) before LC-MS/MS analysis. […] Serlopitant concentrations in samples resulting from formulations A-D were determined by comparison to the standard. Serlopitant was not detected in samples resulting from topical formulations A and D, as expected. […] After an initial lag, serlopitant was detected by LC-MS/MS in the receptor chamber at 6 hours.

Row | solubility in receptor solution ([2]; 0.5, 5 and 50 ug/mL in 1xPBS (pH 7.5) containing 10% ethanol and 1% Tween 80, 1 hour at 37 C) | solubility if Tween 80 was not used ([2]; receptor solution without Tween 80) | solubility if ethanol was not used ([2]; receptor solution without ethanol) | time at which serlopitant was detected in the receptor chamber after initial lag [3] [h] | Compound | hygroscopicity ([1]; all tested relative humidity conditions) | thermodynamic stability ([1]; below 70 C, Form I vs Form II)
1 | – | – | – | – | C[C@@H](O[C@H]1CC[C@@H]2CN(C3=CC(=O)CC3)C[C@H]2[C@@H]1c1ccc(F)cc1)c1cc(C(F)(F)F)cc(C(F)(F)F)c1 [Form I] | non-hygroscopic | thermodynamically more stable
2 | remained soluble | decreased significantly | decreased slightly | 6 | CC(O[C@H]1CC[C@@H]2CN(C3=CC(=O)CC3)C[C@H]2[C@@H]1c1ccc(F)cc1)c1cc(C(F)(F)F)cc(C(F)(F)F)c1 (stereo partly drawn) [serlopitant] | – | –
